PubChem BioAssay (NCI)
Values joined by “and” are separate entries in the source; they are usually repeats but may differ in a detail not shown here. Identical values can stand only once.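 The compound was tested at five concentrations on cells cultured in 96-well plates, with a 48-hour exposure period. GI50 marks 50% less growth. At the TGI there is no net growth.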

What was measured:
Assay in all cases: NCI anticancer screen, dose series, 48 h
[1] = test system: M14 melanoma
[2] = test system: HCT-116 colon
[3] = test system: SW-620 colon
[4] = test system: CCRF-CEM leukemia
[5] = test system: TK-10 renal
[6] = test system: SNB-75 CNS
[7] = test system: OVCAR-4 ovarian
[8] = test system: OVCAR-5 ovarian
[9] = test system: SK-MEL-2 melanoma
[10] = test system: IGROV1 ovarian

Row | Structure (SMILES) | GI50 [1] [µM] | TGI [1] | GI50 [2] [µM] | TGI [2] | GI50 [3] | TGI [3] | GI50 [4] [µM] | TGI [4] [µM] | GI50 [5] [µM] | TGI [5] | GI50 [6] | TGI [6] | GI50 [7] [µM] | TGI [7] | GI50 [8] [µM] | TGI [8] | GI50 [9] [µM] | TGI [9] | GI50 [10] [µM] | TGI [10]
1 | CCOc1ccc2c(c1)C(=O)c1c-2n(CCCBr)c(=O)c2cc([N+](=O)[O-])ccc12 | 6.58 | > 100 µM | 5.98 | > 100 µM | 4.63 µM | > 100 µM | 3.74 | > 100 | > 100 | > 100 µM | 33.9 µM | > 100 µM | > 100 | > 100 µM | 59.4 | > 100 µM | > 100 | > 100 µM |  | 
2 | CC1=C2C(=CC(C)(C)[C@@H]2O)C(=O)[C@](C)(O)C12CC2 |  | 0.0537 µM and 0.0431 µM |  | 0.186 µM and 0.193 µM | 0.00597 µM and 0.0168 µM | 0.0976 µM and 0.131 µM |  |  | 0.0511 | 0.222 µM and 0.236 µM | 0.0315 µM and < 0.0142 µM | 0.0723 µM and 0.0272 µM | 0.0147 | 0.201 µM and 0.0458 µM |  | 0.0954 µM and 0.0374 µM | 0.0196 | 0.0525 µM and 0.0223 µM | 0.0231 | 0.105 µM and 0.0698 µM
3 | COc1cccc(CN(C)c2ccc(CO)c(Cl)c2)c1 | 25.2 | > 100 µM | 0.243 | 14.1 µM | 4.34 µM | > 100 µM | 39.3 | > 100 |  |  | 22.2 µM | 98.4 µM | 1.19 | 29.4 µM | 0.322 | 1.91 µM | 7.78 | 42.5 µM | 0.216 | 2.6 µM
4 | CCOC(=O)CN(Cn1cncn1)Cn1cncn1 |  |  |  | > 100 µM |  | 60 µM |  | > 100 |  | > 100 µM |  | 91 µM |  | > 100 µM |  | > 100 µM |  | > 100 µM |  | > 100 µM
5 | NCCCCC1NC(=O)C(CC(=O)O)NC(=O)CNC(=O)C(CCCN=C(N)N)NC(=O)C(N)CSSCC(C(=O)O)NC(=O)C(CC(=O)O)NC(=O)C2CCCN2C(=O)CNC1=O (centres undefined) | > 100 | > 100 µM | > 100 | > 100 µM | > 100 µM | > 100 µM |  |  | > 100 | > 100 µM | > 100 µM | > 100 µM | > 100 | > 100 µM | > 100 | > 100 µM | > 100 | > 100 µM | > 100 | > 100 µM
6 | COc1ccc(Nc2nc3ccccc3c3occc23)cc1 | 9.72 | 18.9 µM | 6.9 | 13.4 µM | 4.06 µM | 11 µM |  |  | 6.83 | 16.4 µM |  |  | 9.2 | 39.7 µM | 7.95 | 16.6 µM | 8.68 | 22.5 µM | 37.4 | > 50 µM
7 | CCOC(=O)c1c(C)n(Cc2ccc(Cl)cc2Cl)c2c1cc1oc(=O)c(=O)n3cnc2c13 | 22.3 | 41.6 µM | 18.6 | 36 µM | 22.1 µM | 40.5 µM | 6.31 | 20.4 | 17.4 | 33 µM | 3.39 µM | 15.3 µM | 11.9 | 27.6 µM |  |  | 22.5 | 56.5 µM | 17.8 | 34 µM
8 | Cl/C(N=Nc1ccccc1)=N/Nc1ccccc1 |  |  |  | > 100 µM |  | > 100 µM |  | > 100 |  | > 100 µM |  |  |  | > 100 µM |  | > 100 µM |  | > 100 µM |  | > 100 µM
9 | Cn1cccc1-c1cc(-c2ccccc2)[nH]c(=O)c1C#N |  |  | > 100 | > 100 µM | > 100 µM | > 100 µM | > 100 | > 100 | > 100 | > 100 µM | 45.1 µM | > 100 µM | > 100 | > 100 µM | > 100 | > 100 µM | > 100 | > 100 µM | > 100 | > 100 µM
10 | COc1ccc(OC(C(=O)O)C(C)C)c2c1CCCC2=O (centres undefined) |  | > 100 µM |  | > 100 µM |  | > 100 µM |  | > 100 |  | > 100 µM |  |  |  | > 100 µM |  | > 100 µM |  | > 100 µM |  | > 100 µM
11 | O=C(/C=C/c1ccc(O)c(O)c1)NCc1c[nH]c2ccccc12 | 64.8 | > 100 µM | 62.2 | > 100 µM | 58.6 µM | > 100 µM | 48.4 | > 100 | 18.1 | > 100 µM | 82.4 µM | > 100 µM | > 100 | > 100 µM | > 100 | > 100 µM |  |  | 57.3 | > 100 µM
12 | CN(Cc1ccc(C(F)(F)F)cc1)CC(O)C(=O)Nc1ccc(Cl)cc1 (centres undefined) | 1.52 | 3.05 µM | 1.12 | 2.6 µM | 1.54 µM | 3.1 µM |  |  | 1.74 | 3.38 µM | 1.31 µM | 2.62 µM | 1 | 2.26 µM | 1.43 | 2.86 µM | 1.93 | 3.62 µM | 1.46 | 3.04 µM
13 | O=C1C(=O)N(c2ccc(Cl)cc2)C(=O)C(=O)C1c1nc2ccccc2s1 |  | > 100 µM |  | > 100 µM |  | > 100 µM |  |  |  | > 100 µM |  | > 100 µM |  | > 100 µM |  | > 100 µM |  | > 100 µM |  | > 100 µM
14 | C#CCNC(=O)ON1C(=O)CCC1=O |  |  |  | > 100 µM |  | > 100 µM |  | > 100 |  | > 100 µM |  | > 100 µM |  | > 100 µM |  | > 100 µM |  | > 100 µM |  | > 100 µM
15 | COc1ccc2c(c1OC)-c1c(c3ccc([N+](=O)[O-])cc3c(=O)n1CCCBr)C2=O | 27.2 | > 100 µM | 19 | > 100 µM | 5.59 µM | > 100 µM | 16.9 | 80.9 | > 100 | > 100 µM | 26.8 µM | 60.6 µM |  |  | > 100 | > 100 µM | > 100 | > 100 µM |  | 
16 | O=C1OC(c2ccccc2)=N/C1=C\c1ccc(Oc2ccc(Cl)c(Cl)c2)cc1 |  | > 100 µM |  | > 100 µM |  | > 100 µM |  | 59.9 |  | > 100 µM |  |  |  |  |  | > 100 µM |  | > 100 µM |  | > 100 µM
17 | O=c1cccccc1NCCCCCCCNc1cccccc1=O |  | 74.6 µM |  | > 100 µM |  | > 100 µM |  | 67.2 |  |  |  | > 100 µM |  | > 100 µM |  | > 100 µM |  | > 100 µM |  | > 100 µM
